Experimental data reported in patent publication US20230389546A1, “ANTIMICROBIAL COMPOSITION” (The Procter & Gamble Company, priority 2022, published 2023).

What was measured:
[1] = tested on: Gram Negative bacteria; experiment: Surface Antimicrobial Kill Testing, normalized to triclosan internal standard, gram negative; type: cell-based, K. pneumonia (Kp) / P. aeruginosa (Pa); details: for antimicrobial benefit in words, gram-negative: Table 2B formulas
Protocol: (§1) Inoculum is prepared by streaking microorganism onto a Tryptic Soy Agar (TSA) plate and incubating for 24 h at 33° C. Plated bacteria is resuspended in saline until the transmittance percentage falls within the accepted range for ˜10^8 cfu/mL. For K. pneumonia (Kp) and P. aeruginosa (Pa), this is 31.00-33.00% T. For S. aureus (Sa) this is 23.00-25.00% T. A 10× concentration is made by spinning down the prepared inoculum, removing the supernatant saline from the bacterial pellet, then resuspending the pellet in 1/10th of the original volume of saline. The final inoculum is prepared with 5% of “soil” in the form of Fetal Bovine Serum (FBS). A 18×18 mm sterile glass coverslip is placed into an appropriate container (e.g., petri dish). 20 μL of prepared inoculum is added to the glass coverslip. Inoculum is then air-dried for 30 minutes in a 36° C. incubator. After drying, 40 μL of test sample is added on top of the dried inoculum. This is incubated at room temperature for the desired contact time. 5 mL of neutralizing media (Modified Letheen Broth+Tween+Lecithin (MLBTL)) is added to the coverslip and shaken on an orbital shaker for 5 minutes to ensure proper neutralization and extraction. Viability is then assessed of the neutralized and extracted sample by traditional/alternative microbiological techniques. The normalized antimicrobial activity reported in the performance examples below was generated from detection time data obtained as described in the Surface Antimicrobial Kill Test Method. To account for day-to-day variability an internal standard was tested with each series. The internal standard was a composition of 0.25 wt % Triclosan, Sigma Aldrich (St. Louis, MO, USA; CAS #3380-34-5, 97.0-103.0% (active substance, GC)), 50 wt % DMSO, and 49.75 wt % H2O, with a final solution pH of 7.7. Normalized activity is reported following the equation 1 below. Normalized Activity=(αΔDT−βΔDT)/(γΔDT−βΔDT) equation 1. where, αΔDT is the average detection time of the antimicrobial compound, and γΔDT is the average detection time of the reference triclosan internal standard, and βΔDT is the average detection time of the background unperturbed bacteria. Modified amino acids of the present disclosure were tested as aqueous solutions in the Surface Antimicrobial Kill Testing Method above. To prepare test solutions modified amino acids were first dissolved in the appropriate solvent. Second the selected surfactant is added to the mixture. After vortex (1 min, Vortex-2 Genie, vortex speed 8) mixing, the samples were then diluted with ½ portion of reverse osmosis water (RO water, Millipore Direct-Q™, pH 6). The aqueous solution was then vortexed (1 min, Vortex-2 Genie, vortex speed 8), to which the second ½ portion of water is added. The pH of the solution was then adjusted to the target pH using either 1N HCl, Glacial Acetic Acid, or 1N NaOH. The final solution was then vortexed (1 min, Vortex-2 Genie, vortex speed 8). An example batch sheet is provided below in Table 1. In Performance Examples 1-5 below, formulations comprising solvent, surfactant, and antimicrobial agents according to the present disclosure (e.g., based on modified amino acid amides), are evaluated via microbial surface kill tests according to the Surface Antimicrobial Kill Testing Method provided above. After treatment, microbial growth is referenced and reported to a triclosan sample and unaltered microbes according to the Normalization of Antimicrobial Activity provided above.

[2] = tested on: Gram Positive bacteria; experiment: Surface Antimicrobial Kill Testing, normalized to triclosan internal standard, gram positive; type: cell-based, S. aureus (Sa); details: for antimicrobial benefit in words, gram-positive: Table 2B formulas
Protocol: as §1

[3] = Table 2B, compound 0.5 wt %, DPGME 5 wt %, Surfonic L24-9 1 wt %, 0.1M Acetic acid buffer pH 4.5
[4] = Table 3B, compound 0.5 wt %, DPGME 5 wt %, Surfonic L24-9 1 wt %, 0.1M Acetic acid buffer pH 4.5
[5] = 0.5 wt %, 5 wt % DPGME, water, pH 4.5, EH6 1 wt %
[6] = 0.5 wt %, 5 wt % DPGME, water, pH 4.5, Miranol Ultra 1 wt %
[7] = 0.5 wt %, 5 wt % DPGME, water, pH 4.5, Plantaren 2000 1 wt %
[8] = 0.5 wt %, 5 wt % DPGME, water, pH 4.5, Surfonic L24-9 1 wt %
[9] = 0.5 wt %, 5 wt % DPGME, water, pH 4.5, Tween 80 1 wt %
[10] = 0.5 wt %, 5 wt % DPGME, water, pH 9, Miranol Ultra 1 wt %
[11] = 0.5 wt %, 5 wt % DPGME, water, pH 9, SLS 1 wt %
[12] = 0.5 wt %, 5 wt % DPGME, water, pH 9, Surfonic L24-9 1 wt %
[13] = Table 4, variety of surfactants

Compound: CN(C)C(=O)[C@H](N)Cc1ccccc1 [Comparative Example C1, reference compound]
- antimicrobial benefit in words, gram-negative [1]: fail to show any meaningful benefit
- Gram Negative Referenced Microbial Activity [1, 3]: 0.2
- antimicrobial benefit in words, gram-positive [2]: fail to show any meaningful benefit
- Gram Positive Referenced Microbial Activity [2, 3]: 0.1

Compound: CCCCCCNC(=O)[C@@H](N)Cc1c[nH]c2ccccc12 [Synthetic Example 1]
- Gram Negative Referenced Microbial Activity [1, 4]: 2.2
- Gram Positive Referenced Microbial Activity [2, 4]: 0.3

Compound: CCCCCCCCNC(=O)[C@@H](N)Cc1c[nH]c2ccccc12 [Synthetic Example 2]
- Gram Negative Referenced Microbial Activity [1, 5]: ≥4.9
- Gram Negative Referenced Microbial Activity [1, 6]: ≥4.9
- Gram Negative Referenced Microbial Activity [1, 7]: ≥4.9
- Gram Negative Referenced Microbial Activity [1, 8]: 2.5
- Gram Negative Referenced Microbial Activity [1, 9]: ≥4.9
- Gram Negative Referenced Microbial Activity [1, 10]: 0.1
- Gram Negative Referenced Microbial Activity [1, 11]: 0.0
- Gram Negative Referenced Microbial Activity [1, 12]: 0.7
- Gram Negative Referenced Microbial Activity [1, 4]: 2.5
- pH cutoff of antimicrobial efficacy ([1]; Table 4, gram negative and gram positive): cutoff at pH 9
- antimicrobial efficacy in words, gram-negative [1, 13]: shows antimicrobial efficacy
- Gram Positive Referenced Microbial Activity [2, 5]: 1.6
- Gram Positive Referenced Microbial Activity [2, 6]: 0.7
- Gram Positive Referenced Microbial Activity [2, 7]: 1.3
- Gram Positive Referenced Microbial Activity [2, 8]: 1.0
- Gram Positive Referenced Microbial Activity [2, 9]: 1.2
- Gram Positive Referenced Microbial Activity [2, 10]: 0.2
- Gram Positive Referenced Microbial Activity [2, 11]: 0.2
- Gram Positive Referenced Microbial Activity [2, 12]: 0.2
- Gram Positive Referenced Microbial Activity [2, 4]: 1.0
- antimicrobial efficacy in words, gram-positive [2, 13]: shows antimicrobial efficacy
- Gram Positive Referenced Microbial Activity ([2]; compound 0.5 wt %, Surfonic L 24-9 1 wt %, 5 wt % DPGME, water, pH 4.5, aged 14 days): 1.1
- Gram Positive Referenced Microbial Activity ([2]; compound 0.5 wt %, Surfonic L 24-9 1 wt %, 5 wt % DPGME, water, pH 4.5, not aged): 1.0

Compound: CCCCCCCCCNC(=O)[C@@H](N)Cc1c[nH]c2ccccc12 [Synthetic Example 3]
- Gram Negative Referenced Microbial Activity [1, 4]: 2.2
- Gram Positive Referenced Microbial Activity [2, 4]: 0.3

Compound: CCCCCCCCNC(=O)[C@@H](N)Cc1ccccc1 [Synthetic Example 5]
- antimicrobial benefit in words, gram-negative [1]: demonstrate meaningful gram-negative activity
- Gram Negative Referenced Microbial Activity [1, 3]: ≥3.9
- antimicrobial benefit in words, gram-positive [2]: shows improvement against gram-negative and gram-positive bacteria
- Gram Positive Referenced Microbial Activity [2, 3]: 0.7

Compound: CCN(C(=O)C(N)Cc1ccccc1)C1CCCCC1 (stereo not drawn) [Synthetic Example 6]
- antimicrobial benefit in words, gram-negative [1]: demonstrate meaningful gram-negative activity
- Gram Negative Referenced Microbial Activity [1, 3]: 2.7
- Gram Positive Referenced Microbial Activity [2, 3]: 0.2

Compound: CCCCCCCCCCCCNC(=O)[C@@H](N)Cc1ccccc1 [Synthetic Example 7]
- antimicrobial benefit in words, gram-negative [1]: fail to show any meaningful benefit
- Gram Negative Referenced Microbial Activity [1, 3]: 0.1
- antimicrobial benefit in words, gram-positive [2]: fail to show any meaningful benefit
- Gram Positive Referenced Microbial Activity [2, 3]: 0.1
